Experimental data as given in paper PMC6150735, “Molecular Docking-Based Design and Development of a Highly Selective Probe Substrate for UDP-glucuronosyltransferase 1A10” (Molecular Pharmaceutics, 2018).
Entries after “also recorded” stand apart in the source; their conditions may differ.

How the values were obtained:
[1] = Absorbance spectra of coumarin derivatives; format: physicochemical; settings: 10 μM, 100 mM Tris–HCl pH 7.4, 10% dimethyl sulfoxide
Protocol: (§1) The absorbance spectra of 10 μM coumarin derivatives at 100 mM Tris–HCl pH 7.4 containing 10% dimethyl sulfoxide were measured using a Hitachi U-2000 Spectrophotometer (Tokyo, Japan). Excitation and emission fluorescence spectra of 0.1 μM coumarin derivatives in 100 mM Tris-HCl pH 7.4 were measured using a Shimadzu RF-5000 spectrophotofluorometer (Tokyo, Japan). The excitation spectra was from 200 to 420 at 460 nm emission and the emission spectra was from 400 to 600 at 390 nm excitation (data in Supplementary Table S1 and Figures S1 and S2). The effect of pH on fluorescence intensity was determined at 405 nm excitation and 460 nm emission, in the presence of 1.5% trichloroacetic acid, 100 mM phosphate buffers at pH 5, 6, 7, 8, and 9, or 1.6 M glycine–NaOH pH 10.4.

[2] = system: UGT1A1; experiment: Recombinant human UGT screen: glucuronidation by UGT1A1; format: biochemical; settings: 10 μM aglycone, recombinant UGTs
Protocol: Recombinant human UGTs 1A1, 1A3, 1A6, 1A7, 1A8, 1A9, 1A10, 2A1, 2A2, 2A3, 2B4, 2B10, 2B7, and 2B17 were produced, as His-tagged proteins, in baculovirus-infected insect cells as previously described.[37]−[39] The relative expression level of each of these recombinant UGTs was evaluated by immunodetection, using monoclonal antibody against the His-tag, as described elsewhere.[40] A numeric value of 1.0 was given to the expression level of UGT1A8 and the relative expression level of each of the other UGTs was related to this value. Normalized activities were obtained by dividing the glucuronidation rate values by the relative expression level of the tested UGT. […] The expression levels of the UGTs in the commercial samples could not be determined, so their protein concentration was used to calculate the reaction rate.
The incubation mixtures for glucuronidation assays contained 100 mM Tris-HCl buffer pH 7.4, 2.5 mM MgCl2, 0.5 mM UDPGA, recombinant UGT, or microsomes as the enzyme source and 0–15 μM of the test aglycone substrate. […] In subsequent experiments, the control samples lacked the enzyme source since it gave the highest fluorescence background. […] Fluorescence spectra (excitation 200–420 nm; emission 400–600 nm) or fluorescence decrease at 390 nm excitation and 460 nm emission, were measured in these preliminary experiments, using a Shimadzu RF-5000 spectrophotofluorometer. […]

[3] = Excitation and emission fluorescence spectra of coumarin derivatives; format: physicochemical; set-up: dose or concentration left out as unconfirmed
Protocol: as §1, with “Excitation and emission fluorescence spectra of 0.1 μM coumarin derivatives in 100 mM Tris-HCl pH 7.4 were measured using a Shimadzu RF-5000 spectrophotofluorometer (Tokyo, Japan).” left out

[4] = biological target: T1, UGT1A10 mutant 1A10-H210M (Homo sapiens, UniProt Q9HAW8, H210M); experiment: Glucuronidation kinetics by UGT1A10 mutant 1A10-H210M (fluorescence decrease, 96-well plate); format: biochemical; settings: mutant versus wild-type UGT1A10
T1 construct: His-tag; made in house; host or cells: baculovirus-infected SF9 insect cells
T1 sequence (Q9HAW8 26-530 H210M): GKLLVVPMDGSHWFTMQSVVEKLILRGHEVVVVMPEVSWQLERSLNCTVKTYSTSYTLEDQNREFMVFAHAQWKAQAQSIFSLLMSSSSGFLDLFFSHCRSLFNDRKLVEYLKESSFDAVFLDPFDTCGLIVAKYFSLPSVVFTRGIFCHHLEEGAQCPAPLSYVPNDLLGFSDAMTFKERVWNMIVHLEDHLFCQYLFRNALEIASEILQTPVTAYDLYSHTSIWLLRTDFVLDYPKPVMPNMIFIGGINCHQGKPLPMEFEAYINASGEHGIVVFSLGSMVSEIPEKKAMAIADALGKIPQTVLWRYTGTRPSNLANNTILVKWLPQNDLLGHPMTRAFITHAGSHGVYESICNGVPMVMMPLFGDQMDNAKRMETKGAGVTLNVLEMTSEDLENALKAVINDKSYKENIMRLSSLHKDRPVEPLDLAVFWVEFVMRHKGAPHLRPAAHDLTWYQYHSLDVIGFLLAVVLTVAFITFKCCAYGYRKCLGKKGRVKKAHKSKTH
Protocol: The UGT1A10 mutant 1A10-H210 M was prepared according to the QuikChange methodology, using the cloned UGT1A10 in pFastBac[42] as a template and the following two oligonucleotides:
The entire coding sequence of UGT1A10 in the mutant clone was sequenced, and subsequently, recombinant baculovirus was prepared and used to express the mutant enzyme in baculovirus-infected SF9 insect cells.
The incubation mixtures for glucuronidation assays contained 100 mM Tris-HCl buffer pH 7.4, 2.5 mM MgCl2, 0.5 mM UDPGA, recombinant UGT, or microsomes as the enzyme source and 0–15 μM of the test aglycone substrate. When the incubation mixtures contained microsomes, alamethicin was used at a final concentration of 12.5 μg/mL, but it was not included in the recombinant enzyme assays.[43] In the first experiments three negative control samples were tested, namely (i) without the substrate 7-hydroxycoumarin derivative, (ii) without the cofactor UDPGA, or (iii) without the enzyme source. In subsequent experiments, the control samples lacked the enzyme source since it gave the highest fluorescence background. […] Fluorescence spectra (excitation 200–420 nm; emission 400–600 nm) or fluorescence decrease at 390 nm excitation and 460 nm emission, were measured in these preliminary experiments, using a Shimadzu RF-5000 spectrophotofluorometer.
Most of the glucuronidation assays were carried out in 96 multiwell plate format, and incubations were carried out in 100 μL and at 37 °C, in the presence of Tris–HCl buffer pH 7.4, UDPGA, and the tested 7-hydroxycoumarin derivative, at the indicated concentrations. Fluorescence decline in the multiwell plate experiments was monitored every other minute, for 40 min, using an excitation filter at 405 nm and detection at 460 nm, in a Victor2 1420 Multilabel counter (PerkinElmer, Life Sciences, Turku, Finland). The fluorescence values were transformed into molarity using the aglycone substrates for making the respective standard curves. […] Enzyme catalyzed glucuronidation rate was calculated by subtracting the blank value from the full reaction value. […]

[5] = system: human UGTs; experiment: Recombinant human UGT screen: glucuronidation rates across human UGTs; format: biochemical; settings: 10 μM aglycone
Protocol: Recombinant human UGTs 1A1, 1A3, 1A6, 1A7, 1A8, 1A9, 1A10, 2A1, 2A2, 2A3, 2B4, 2B10, 2B7, and 2B17 were produced, as His-tagged proteins, in baculovirus-infected insect cells as previously described.[37]−[39] The relative expression level of each of these recombinant UGTs was evaluated by immunodetection, using monoclonal antibody against the His-tag, as described elsewhere.[40] A numeric value of 1.0 was given to the expression level of UGT1A8 and the relative expression level of each of the other UGTs was related to this value. Normalized activities were obtained by dividing the glucuronidation rate values by the relative expression level of the tested UGT. In addition, UGTs 1A4, 2B10, and 2B15 were purchased from Corning Life Sciences (New York) and are marked, in Figure 5, with a “C” to indicate that they are commercial enzymes. The expression levels of the UGTs in the commercial samples could not be determined, so their protein concentration was used to calculate the reaction rate.
(§2) The incubation mixtures for glucuronidation assays contained 100 mM Tris-HCl buffer pH 7.4, 2.5 mM MgCl2, 0.5 mM UDPGA, recombinant UGT, or microsomes as the enzyme source and 0–15 μM of the test aglycone substrate. When the incubation mixtures contained microsomes, alamethicin was used at a final concentration of 12.5 μg/mL, but it was not included in the recombinant enzyme assays.[43] In the first experiments three negative control samples were tested, namely (i) without the substrate 7-hydroxycoumarin derivative, (ii) without the cofactor UDPGA, or (iii) without the enzyme source. In subsequent experiments, the control samples lacked the enzyme source since it gave the highest fluorescence background. Preliminary experiments were done under different conditions than most of the later assays, namely in 2.5 mL of 100 mM phosphate buffer pH 7.4, containing 500 μg pig liver microsomes, 1.0 μM compound 6 and 0.5 mM UDPGA, at room temperature. Fluorescence spectra (excitation 200–420 nm; emission 400–600 nm) or fluorescence decrease at 390 nm excitation and 460 nm emission, were measured in these preliminary experiments, using a Shimadzu RF-5000 spectrophotofluorometer.
(§3) Most of the glucuronidation assays were carried out in 96 multiwell plate format, and incubations were carried out in 100 μL and at 37 °C, in the presence of Tris–HCl buffer pH 7.4, UDPGA, and the tested 7-hydroxycoumarin derivative, at the indicated concentrations. Fluorescence decline in the multiwell plate experiments was monitored every other minute, for 40 min, using an excitation filter at 405 nm and detection at 460 nm, in a Victor2 1420 Multilabel counter (PerkinElmer, Life Sciences, Turku, Finland). The fluorescence values were transformed into molarity using the aglycone substrates for making the respective standard curves. Slopes of the substrate concentration decrease per minute were calculated using linear regression analysis, in which the linear part of the kinetic assay indicated the glucuronidation rate. Enzyme catalyzed glucuronidation rate was calculated by subtracting the blank value from the full reaction value. The intra-assay variability of the kinetic assays was 6% when compound 6 was used as the aglycone substrate. Kinetic analyses were also performed in the same 96 multiwell plates format, with excitation filter at 405 nm and detection at 460 nm, using 6–8 different substrate concentrations per substrate and two different protein concentrations for both the wild-type and mutant UGT1A10. The higher concentrations, 13.5 mg/L for UGT1A10 and 12.0 mg/L for the UGT1A10 mutant, were used when the substrates were HFC, compounds 4 and 6, whereas the lower protein concentrations, 6.75 and 6.0 mg/L for UGT1A10 and the mutant, respectively, were used when the substrates were compounds 1, 2, 3, and 5.

[6] = system: human liver microsomes (HLM); experiment: Glucuronidation by human liver microsomes (HLM); format: in vitro ADME; settings: 10 μM aglycone
Protocol: (§4) A commercial HLM pool (cat no:452210, BD Gentest, Bedford, MA) and human intestine microsomes (HIM) pool (lot. no 1110189, XenoTech, Kansas City, KS) were purchased. Pig liver samples were prepared from untreated female pigs that were used for practicing surgical procedures at the University of Kuopio (currently: University of Eastern Finland, Kuopio campus). Other animal liver microsomes were prepared as described previously.[41] The Ethics Committee for Animal Experiments, University of Kuopio, approved these experiments.
as §2, §3

[7] = system: human intestinal microsomes (HIM); experiment: Glucuronidation by human intestinal microsomes (HIM); format: in vitro ADME; settings: 10 μM aglycone
Protocol: as §4, §2, §3

| Amax [1] [nm] | ε abs [1] [M⁻¹ cm⁻¹] | Fluorescence EMmax [3] [nm] | Fluorescence EXmax [3] [nm] | Change of Km by the H210M mutation (in words) [4] | Glucuronidation rate, HLM compared with HIM (in words) [7] | SMILES | Glucuronidation rate by UGT1A1 relative to the corresponding UGT1A10 rate [2] | Selectivity among human UGTs ([5]; other UGTs at very low rates) | Glucuronidation by HLM (in words) [6] | UGT(s) that primarily glucuronidate the substrate ([5]; control substrates) |
| --- | --- | --- | --- | --- | --- | --- | --- | --- | --- | --- |
| 350 | 17300 | 472 | 368 | – | – | COc1ccc(-c2cc3ccc(O)cc3oc2=O)cc1 [Compound 3, 7-hydroxy-3-(4-methoxyphenyl)coumarin] | ~20% | – | – | – |
| 344 | 19000 | 466 | – | – | – | O=c1oc2cc(O)ccc2cc1-c1ccc(F)cc1 [Compound 1, 7-hydroxy-3-(4-fluorophenyl)-2H-chromen-2-one] | about 40% | – | – | – |
| 352 | 20000 | 475 | 395 | considerably increased | – | O=c1oc2cc(O)ccc2cc1-c1ccc(O)cc1 [Compound 2, 7-hydroxy-3-(4-hydroxyphenyl)-2H-chromen-2one] | – | selective for UGT1A10 | not glucuronidated by HLM at all, or only at very low rates; also recorded: very low or below the detection limit | – |
| – | – | – | – | increase | much higher rates by HLM than by HIM | O=c1cc(C(F)(F)F)c2ccc(O)cc2o1 [HFC, 4-(trifluoromethyl)-7-hydroxycoumarin, reference compound] | – | – | – | UGT1A6 and UGT1A10 |
